We go through three compounds from article PMC2410218, “Identification of an HLA-A^*0201-restricted T-cell epitope derived from the prostate cancer-associated protein prostein” (British Journal of Cancer, 2004).

The subject of series [1] is prostein mRNA expression in LNCaP 1740 cells. Description: Quantitative RT-PCR of prostein transcripts in LNCaP 1740 cells under androgen deprivation or stimulation. It counts as cell-based, human. The settings on record: 1 nM R1881 for 48 h; real-time PCR normalised to HPRT; means of two LC runs. As to the method: The androgen deprivation and stimulation experiments were performed as described previously ([Xu et al, 2001]). Briefly, LNCaP 1740 cells were cultured for 24 h in phenol red-free RPMI (Life Technologies) supplemented with 1% nonessential amino acids, 10 mM HEPES (Life Technologies) and 10% charcoal-stripped FCS (Biochrom). The cultivation was continued for additional 48 h in the androgen-depleted medium or in the presence of 1 nM of the synthetic androgen R1881 (Perkin-Elmer Life Sciences, Rodgau-Jügesheim, Germany). Subsequently, the cells were harvested and were used as target cells in a chromium release assay.
The mRNA quantity of prostein was determined using a LightCycler (LC)-based real-time PCR protocol based on SYBR Green I detection (LC – FastStart DNA Master SYBR Green I; Roche Diagnostics, Mannheim, Germany) and the primer pair Prostein_N1 (5′-[…]-3′) and Prostein_C1 (5′-[…]-3′) to amplify a 240 bp cDNA fragment spanning two exons.
The mRNA copy number was adjusted to the RT–PCR product quantity of hypoxanthine phosphoribosyltransferase (HPRT) determined by LC technique using the primer pair HPRT_N1 (5′-[…]-3′) and HPRT_C1 (5′-[…]-3′) for the amplification of a 238 bp fragment. […]
(In general: Quantitative PCR measures a nucleic acid by following its amplification.)

The next series relates to LNCaP 1740 cells. Description: 51Cr release assay: peptide-activated CD8+ T cells against LNCaP 1740 cells. The series is classed as cell-based, human. The method, then: Briefly, LNCaP 1740 cells were cultured for 24 h in phenol red-free RPMI (Life Technologies) supplemented with 1% nonessential amino acids, 10 mM HEPES (Life Technologies) and 10% charcoal-stripped FCS (Biochrom). The cultivation was continued for additional 48 h in the androgen-depleted medium or in the presence of 1 nM of the synthetic androgen R1881 (Perkin-Elmer Life Sciences, Rodgau-Jügesheim, Germany). Subsequently, the cells were harvested and were used as target cells in a chromium release assay.
After washing 2 × 10^5 peptide-loaded DCs were cocultured with 2 × 10^6 immunomagnetically isolated CD8+ T cells well^−1 of a 24-well tissue culture plate (Greiner, Frickenhausen, Germany). […] After 7 days, cultures were washed and restimulated with peptide-loaded DCs at a responder to stimulator ratio of 5 : 1. After three rounds of weekly restimulation, the cultures were tested for the presence of prostein-specific CTLs.
The HLA-A2 restriction of CD8+ T-cell-mediated lysis was tested at an effector cell to target cell ratio of 30 : 1 in the presence of the anti-HLA-A2 monoclonal antibody derived from the MA2.1 hybridoma (American Type Culture Collection) at a final concentration of 1 μg ml^−1.

In the next series the target is T1, HLA-A^*0201 (Homo sapiens, UniProt P04439, D140Y/D185E/D98H/E176V/E277Q/G131W/G231S/I119V/I121R/I166T/I218V/L300P/L318F/N151K/N90K/P208A/P217A/Q86G/Q94H/R138H/R169H/T345S).
T1 construct: endogenous in cells; host or cells: B-cell lines LCL721 or JY
In words: Fluorescence-based competition assay on B-cell lines LCL721 or JY. The settings on record: inhibition of binding of reporter peptide ILK(FITC)EPVHGV relative to positive control peptide YLLPAIVHI set as 100%; all peptides at 10 μM; LCL721 or JY cells, no acid strip; flow cytometry. The method, then:
Binding studies of potential HLA-A^*0201 fitting peptides were carried out using the B-cell lines LCL721 or JY and a fluorescence-based competition assay, essentially as described by [van der Burg et al (1995)], but without performing acid strip. Reporter peptide was ILK(FITC)EPVHGV from HIV-1 reverse transcriptase and positive control was […] from RNA helicase p72. Fluorescence intensities were recorded by flow cytometry (FACSCALIBUR; Becton Dickinson, Heidelberg, Germany).
On the technique in general: In flow cytometry, cells or beads pass a laser one at a time.

The next series relates to K562 cells. In words: 51Cr release assay: peptide-activated CD8+ T cells against K562 cells. The series is classed as cell-based, human. The conditions noted are these: E:T 3:1, 10:1, 30:1; 4 h 51Cr release. As to the method:
(§1) After washing 2 × 10^5 peptide-loaded DCs were cocultured with 2 × 10^6 immunomagnetically isolated CD8+ T cells well^−1 of a 24-well tissue culture plate (Greiner, Frickenhausen, Germany). […] The T cells were cultured in 2 ml RPMI 1640 medium well^−1 supplemented with 10% human serum (CCpro, Neustadt, Germany), 100 U ml^−1 IL-2 and 10 ng ml^−1 IL-7 (both from Strathmann Biotech, Hanover, Germany). After 7 days, cultures were washed and restimulated with peptide-loaded DCs at a responder to stimulator ratio of 5 : 1. After three rounds of weekly restimulation, the cultures were tested for the presence of prostein-specific CTLs.
Cytotoxic activity of the in vitro-stimulated CTLs was assayed against the HLA-A^*0201-positive mutant cell line T2 pulsed with the individual prostein-derived peptides or an irrelevant HLA-A^*0201-binding peptide from HIV-1 reverse transcriptase at a concentration of 50 μg ml^−1, against the PCa cell line LNCaP 1740, the melanoma cell line 93.04A12.1 and against K562 cells as targets in a 4 h standard ^51Cr release assay as described previously ([Kiessling et al, 2002]). The HLA-A2 restriction of CD8+ T-cell-mediated lysis was tested at an effector cell to target cell ratio of 30 : 1 in the presence of the anti-HLA-A2 monoclonal antibody derived from the MA2.1 hybridoma (American Type Culture Collection) at a final concentration of 1 μg ml^−1.

Series [2] has as its system T2 cells pulsed with the individual peptides. Description: 51Cr release assay: in vitro-stimulated CD8+ T cells against peptide-pulsed T2 cells. The series is classed as cell-based, human. The conditions noted are these: CD8+ T cells stimulated four times with peptide-pulsed autologous DCs (20 μg ml^-1 of each peptide); T2 cells pulsed at 50 μg ml^-1; E:T 20:1; 4 h 51Cr release; triplicates. As to the method:
Briefly, peripheral blood mononuclear cells were prepared from blood samples by Ficoll–Hypaque (Biochrom) density centrifugation. Monocytes were isolated by immunomagnetic cell separation with an anti-CD14 antibody coupled to paramagnetic microbeads (Miltenyi Biotech, Bergisch Gladbach, Germany) according to the manufacturer's instructions. Mature monocyte-derived dendritic cells (DCs) were generated as described previously ([Schmitz et al, 2000]).
as §1, with “CTLs. […]” for “CTLs.”

Consider `C[C@]1(O)CC[C@H]2[C@@H]3CCC4=CC(=O)CCC4=C3C=C[C@@]21C` [R1881, reference compound], for which the “Prostein mRNA expression in LNCaP 1740 under androgen deprivation compared with cells cultured in the presence of R1881” value in series [1] is “downregulated but still detectable”. Besides, the “T-cell-mediated cytotoxicity against LNCaP 1740 cells deprived of androgen compared with cells grown in the presence of R1881” value in the series on LNCaP 1740 cells (1 nM R1881 for 48 h after 24 h in charcoal-stripped FCS medium, E:T 30:1, all three donors) was “clearly reduced”.

Regarding ALLPRLHQL [compound 1487], the “rBA (%) relative binding affinity” value at HLA-A^*0201 was determined as 84.1%.

For the compound CLAAGITYV [compound 2004], in the series with K562 cells, the “Lysis of K562 cells by peptide-activated T cells (natural killer cell-like activity)” value is recorded as “failure”. Further, the “rBA (%) relative binding affinity” value at HLA-A^*0201 is recorded as 94.0%. Also, the “Lysis of LNCaP 1740 cells by CTLs specifically recognising the peptide” value with LNCaP 1740 cells (HLA-A*0201-positive, prostein-expressing PCa cell line, E:T 3:1, 10:1, 30:1, 4 h 51Cr release, three donors) was “capable of lysing”. Moreover, the “Induction of peptide-specific CTLs (specific lysis of peptide-loaded T2 cells)” value in series [2] is reported as “induced specific CTLs in all three donors tested”.
